Results: patent US9346802B2, “CARM1 inhibitors and uses thereof” (Epizyme, Inc., priority 2013, dated 2016)
pIC50: −log10 of the molar value.

Biological target: T1, Human CARM1 (PRMT4) (Homo sapiens, UniProt Q86X55)
T1 construct: Flag-CARM1-His was eluted with 200 ug/ml FLAG peptide in buffer A; made in house; host or cells: HEK 293F cells infected with recombinant baculovirus (pFastBacMam)
T1 sequence (Q86X55 1-585 isoform Q86X55-1): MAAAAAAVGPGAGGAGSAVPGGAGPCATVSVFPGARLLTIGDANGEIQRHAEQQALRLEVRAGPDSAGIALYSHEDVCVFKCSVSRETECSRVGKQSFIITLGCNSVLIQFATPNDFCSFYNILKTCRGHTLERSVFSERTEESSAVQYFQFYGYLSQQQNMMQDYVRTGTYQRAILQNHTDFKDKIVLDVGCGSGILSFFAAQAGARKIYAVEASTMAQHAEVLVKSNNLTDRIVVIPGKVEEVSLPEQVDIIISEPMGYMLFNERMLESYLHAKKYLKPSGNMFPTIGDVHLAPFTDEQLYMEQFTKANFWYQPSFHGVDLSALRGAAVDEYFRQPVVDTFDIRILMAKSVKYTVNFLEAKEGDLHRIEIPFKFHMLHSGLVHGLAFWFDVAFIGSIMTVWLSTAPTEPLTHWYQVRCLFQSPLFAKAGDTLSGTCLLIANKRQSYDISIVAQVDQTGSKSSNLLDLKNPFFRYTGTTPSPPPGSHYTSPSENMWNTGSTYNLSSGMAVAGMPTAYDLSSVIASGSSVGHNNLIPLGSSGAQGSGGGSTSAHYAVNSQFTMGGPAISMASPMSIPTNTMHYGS
Experiment: CARM1 enzyme assay on peptide substrate (3H-SAM Flashplate)
Assay type: biochemical
Conditions: CARM1 0.25 nM, 3H-SAM 30 nM, peptide 250 nM, 30 min preincubation; read-out: Biochem IC50
Source text: Peptide representative of human histone H3 residues 16-30 was synthesized with an N-terminal linker-affinity tag motif and a C-terminal amide cap by 21st Century Biochemicals. The peptide was purified by high-performance liquid chromatography (HPLC) to greater than 95% purity and confirmed by liquid chromatography mass spectrometry (LC-MS). The sequence was Biot-Ahx-[…]-amide and contained a monomethylated arginine at position 26 (SEQ ID NO.:1).
Human CARM1 (PRMT4) (NM_199141.1) transcript clone was amplified from an HEK 293 cDNA library, incorporating a flanking 5′ sequence encoding a FLAG tag ([…]) (SEQ ID NO.:2) fused directly to Ala 2 of CARM1 and 3′ sequence encoding a hexa His sequence ([…]) (SEQ ID NO.:3) fused directly to Ser 608. The gene sequence encoding isoform1 containing a deletion of amino acids 539-561 was amplified subsequently and subcloned into pFastBacMam (Viva Biotech).
Recombinant baculovirus were generated according to Bac-to-Bac kit instructions (Life Technologies). Protein over-expression was accomplished by infecting exponentially growing HEK 293F cell culture at 1.3×10^6 cell/ml with virus (MOI=10) in the presence of 8 mM sodium butyrate. Infections were carried out at 37° C. for 48 hours, harvested by centrifugation, and stored at −80° C. for purification.
Expressed full-length human Flag- and His-tagged CARM1 protein was purified from cell paste by anti-flag M2 affinity chromatography with resin equilibrated with buffer containing 20 mM Tris, 150 mM NaCl, 5% glycerol, pH 7.8. Column was washed with 500 mM NaCl in buffer A and Flag-CARM1-His was eluted with 200 ug/ml FLAG peptide in buffer A. Pooled fractions were dialyzed in 20 mM Tris, 150 mM NaCl, 5% glycerol and 1 mM DTT, pH 7.8. The purity of recovered protein was 94.
The assays were all performed in a buffer consisting of 20 mM Bicine (pH=7.6), 1 mM TCEP, 0.005% BSG, and 0.002% Tween 20, prepared on the day of use. Compounds in 100% DMSO (1 ul) were spotted into a polypropylene 384-well V-bottom plates (Greiner) using a Platemate Plus outfitted with a 384-channel head (Thermo Scientific). DMSO (1 ul) was added to Columns 11, 12, 23, 24, rows A-H for the maximum signal control and 1 ul of SAH, a known product and inhibitor of CARM1, was added to columns 11, 12, 23, 24, rows I-P for the minimum signal control. A cocktail (40 ul) containing the CARM1 enzyme was added by Multidrop Combi (Thermo-Fisher). The compounds were allowed to incubate with CARM1 for 30 min at room temperature, then a cocktail (10 ul) containing ^3H-SAM and peptide was added to initiate the reaction (final volume=51 ul). The final concentrations of the components were as follows: CARM1 was 0.25 nM, ^3H-SAM was 30 nM, peptide was 250 nM, SAH in the minimum signal control wells was 1 mM, and the DMSO concentration was 2%. The assays were stopped by the addition of non-radiolabeled SAM (10 ul) to a final concentration of 300 uM, which dilutes the ^3H-SAM to a level where its incorporation into the peptide substrate is no longer detectable. 50 ul of the reaction in the 384-well polypropylene plate was then transferred to a 384-well Flashplate and the biotinylated peptides were allowed to bind to the streptavidin surface for at least 1 hour before being washed once with 0.1% Tween20 in a Biotek ELx405 plate washer. The plates were then read in a PerkinElmer TopCount plate reader to measure the quantity of ^3H-labeled peptide bound to the Flashplate surface, measured as disintegrations per minute (dpm) or alternatively, referred to as counts per minute (cpm).
[formula] where dpm=disintegrations per minute, cmpd=signal in assay well, and min and max are the respective minimum and maximum signal controls.
[formula] where top and bottom are the normally allowed to float, but may be fixed at 100 or 0 respectively in a 3-parameter fit. The Hill Coefficient normally allowed to float but may also be fixed at 1 in a 3-parameter fit. […]

Compound | pIC50
CNCC(O)COc1cccc(-c2cc(N(C)C3CCOCC3)nc(C)n2)c1 (centres unmarked) [Compound 1-2] | 6.00 to 7.00
CNCC(O)COc1cccc(-c2cc(NC3CCOCC3)nc(N(C)C)n2)c1 (centres unmarked) [Compound 3-2] | 6.00 to 7.00
C#Cc1cc(NC2CCOCC2)nc(-c2cccc(OCC(O)CNC)c2)n1 (centres unmarked) [Compound 5-1] | 5.00 to 5.52
CNCC(O)COc1cccc(-c2nc(C)cc(N(C)C3CCOCC3)n2)c1 (centres unmarked) [Compound 6-1] | 6.00 to 7.00
C#Cc1cc(N(C)C2CCOCC2)nc(-c2cccc(OCC(O)CNC)c2)n1 (centres unmarked) [Compound 7-1] | 6.00 to 7.00
CNCC(O)COc1cccc(-c2cc(NC3CCOCC3)nc(NC(C)C)n2)c1 (centres unmarked) [Compound 9-2] | 6.00 to 7.00
CNCC(O)COc1cccc(-c2cc(N[C@H]3CCOC3)nc(C3CCOCC3)n2)c1 (some centres unmarked) [Compound 10-2] | 6.00 to 7.00
CNCC(O)COc1cccc(-c2cc(NC3CCOCC3)nc(-c3ccncc3)n2)c1 (centres unmarked) [Compound 11-2] | 6.00 to 7.00
CNCC(O)COc1cccc(-c2nc(NC3CCOCC3)cc(NC3CC3)n2)c1 (centres unmarked) [Compound 12-1] | 6.00 to 7.00
CNCC(O)COc1cccc(-c2cc(NC3CCOCC3)nc(N3CCOCC3)n2)c1 (centres unmarked) [Compound 12-2] | 6.00 to 7.00
CNCC(O)COc1cccc(-c2nc(N3CCOCC3)nc(N[C@H]3CCOC3)c2C)c1 (some centres unmarked) [Compound 13-2] | 6.00 to 7.00
CNCC(O)COc1cccc(-c2nc(NC(C)C)cc(NC3CCOCC3)n2)c1 (centres unmarked) [Compound 16-1] | 6.00 to 7.00
C=C(Cl)c1cc(NC2CCOCC2)nc(-c2cccc(OCC(O)CNC)c2)n1 (centres unmarked) [Compound 17-1] | 5.52 to 6.00
CNCC(O)COc1cccc(-c2nc(C(C)C)c(C)c(N(C)C3CCOCC3)n2)c1 (centres unmarked) [Compound 21-1] | 6.00 to 7.00
CNCC(O)COc1cccc(-c2nc(NCCOC)cc(-c3cccc(C#N)c3)n2)c1 (centres unmarked) [Compound 23-1] | 6.00 to 7.00
CNCC(O)COc1cccc(-c2nc(NC3CCOCC3)cc(N3CCOCC3)n2)c1 (centres unmarked) [Compound 27-1] | 6.00 to 7.00
CNCC(O)COc1cc(Cl)cc(-c2nc(C3CC3)cc(N(C)C3CCOCC3)n2)c1 (centres unmarked) [Compound 28-1] | 6.00 to 7.00
CNCC(O)COc1cccc(-c2nc(-c3ccnc(OC)c3)cc(N(C)CCC#N)n2)c1 (centres unmarked) [Compound 30-1] | 6.00 to 7.00
CNCC(O)COc1cc(Cl)cc(-c2nc(C(C)C)cc(N(C)C3CCOCC3)n2)c1 (centres unmarked) [Compound 31-1] | 6.00 to 7.00
CNCC(O)COc1cccc(-c2nc(-c3cc4ccccc4o3)cc(N(C)CCC#N)n2)c1 (centres unmarked) [Compound 35-1] | 6.00 to 7.00
CNCC(O)COc1cccc(-c2nc(NC3CCOCC3)cc(-c3cccc(C#N)c3)n2)c1 (centres unmarked) [Compound 38-1] | 6.00 to 7.00

Compound | pIC50
CNCC(O)COc1cccc(-c2nc(NCCOC)cc(-c3cccc4ncccc34)n2)c1 (centres unmarked) [Compound 39-1] | 6.00 to 7.00
CNCC(O)COc1cccc(-c2nc(-c3ccnc(C)c3)cc(N(C)C3CCOCC3)n2)c1 (centres unmarked) [Compound 40-1] | 6.00 to 7.00
CNCC(O)COc1cccc(-c2nc(-c3cncnc3)cc(N(CCOC)CCOC)n2)c1 (centres unmarked) [Compound 43-1] | 6.00 to 7.00
CNCC(O)COc1cccc(-c2nc(-c3cccc4ncccc34)cc(N(C)CCC#N)n2)c1 (centres unmarked) [Compound 44-1] | 6.00 to 7.00
CNCC(O)COc1cc(Cl)cc(-c2nc(N[C@@H]3CCOC3)c(C)c(C3=CCOCC3)n2)c1 (some centres unmarked) [Compound 47-1] | 6.00 to 7.00
CNCC(O)COc1cccc(-c2nc(NC3CCOCC3)cc(-c3cnn(CC(C)C)c3)n2)c1 (centres unmarked) [Compound 51-1] | 6.00 to 7.00
CNCC(O)COc1cccc(-c2nc(-c3c(C)noc3C)cc(N(CCOC)CCOC)n2)c1 (centres unmarked) [Compound 52-1] | 6.00 to 7.00
CNCC(O)COc1cccc(-c2nc(-c3ccc(C(F)(F)F)nc3)cc(N(C)CCC#N)n2)c1 (centres unmarked) [Compound 54-1] | 6.00 to 7.00
CNCC(O)COc1cc(Cl)cc(-c2nc(-c3ccncc3)c(C)c(N(C)C3CCOCC3)n2)c1 (centres unmarked) [Compound 58-1] | 6.00 to 7.00
CNCC(O)COc1cccc(-c2nc(-c3ccc(OC)c(OC)c3)cc(N(C)C3CCOCC3)n2)c1 (centres unmarked) [Compound 61-1] | 5.52 to 6.00
CNCC(O)COc1cc(Cl)cc(-c2nc(-c3cc(C)nc(C)c3)c(C)c(N(C)C3CCOCC3)n2)c1 (centres unmarked) [Compound 63-1] | 6.00 to 7.00
CNCC(O)COc1cc(Cl)cc(-c2nc(-c3ccnc(OC)c3)cc(N(CCOC)CCOC)n2)c1 (centres unmarked) [Compound 65-1] | 6.00 to 7.00
CNCC(O)COc1cccc(-c2nc(NCCCN3CCCC3=O)cc(-c3ccc4c(c3)OCCO4)n2)c1 (centres unmarked) [Compound 66-1] | 6.00 to 7.00
CNCC(O)COc1cccc(-c2nc(-c3ccc(C(F)(F)F)nc3)cc(N(CCOC)CCOC)n2)c1 (centres unmarked) [Compound 67-1] | 6.00 to 7.00
CNCC(O)COc1cccc(-c2nc(NCCCN3CCCC3=O)cc(-c3ccc(OC)c(OC)c3)n2)c1 (centres unmarked) [Compound 68-1] | 6.00 to 7.00
CNCC(O)COc1cc(Cl)cc(-c2nc(-c3cn4ccccc4n3)c(C)c(N(C)C3CCOCC3)n2)c1 (centres unmarked) [Compound 69-1] | 6.00 to 7.00
CNCC(O)COc1cccc(-c2nc(-c3ccc(S(C)(=O)=O)cc3)cc(N(CCOC)CCOC)n2)c1 (centres unmarked) [Compound 72-1] | 6.00 to 7.00
CNCC(O)COc1cccc(-c2nc(NCCCN3CCCC3=O)cc(-c3ccc(S(C)(=O)=O)cc3)n2)c1 (centres unmarked) [Compound 73-1] | 6.00 to 7.00
CNCC(O)COc1cc(Cl)cc(-c2nc(-c3ccc4c(c3)OCCO4)cc(N(CCOC)CCOC)n2)c1 (centres unmarked) [Compound 74-1] | 6.00 to 7.00
CNCC(O)COc1cc(Cl)cc(-c2nc(-c3ccc(OC)c(OC)c3)cc(N(CCOC)CCOC)n2)c1 (centres unmarked) [Compound 75-1] | 6.00 to 7.00
